Test results as given in patent US20210145802A1, “THERAPY FOR OPHTHALMOLOGICAL CONDITIONS” (WREN THERAPEUTICS LIMITED, priority 2018, published 2021).

Columns and labels:
Assay type in all cases: biochemical
[1] = biological target: T1, Aβ42 (Homo sapiens, UniProt P05067); experiment: ThT kinetic assay of Aβ42 fibril formation (unseeded); details: 2 μM Aβ42; range of Netoglitazone concentrations; ThT fluorescence
T1 construct: […]; made in house; host or cells: E. coli BL21 Gold (DE3)
From the text: The recombinant Aβ(M1-42) peptide ([…]-SNKGAIIGLMVGGVVIA [SEQ ID NO: 1]), here called Aβ42, was expressed in the E. coli BL21 Gold (DE3) strain (Stratagene, CA, U.S.A.) and purified as described previously with slight modifications. Briefly, the purification procedure involved sonication of E. coli cells, dissolution of inclusion bodies in 8 M urea, and ion exchange in batch mode on diethylaminoethyl cellulose resin and lyophylization. The lyophilized fractions were further purified using Superdex 75 HR 26/60 column (GE Healthcare, Buckinghamshire, U.K.) and eluates were analyzed using SDS-PAGE for the presence of the desired protein product. The fractions containing the recombinant protein were combined, frozen using liquid nitrogen, and lyophilized again.
Except for Netoglitazone, which was custom synthesised by GVK BIO, all small molecules were purchased with a purity greater than 99%. Small molecules were first solubilized in 100% DMSO to a concentration of 5 mM, and then diluted in the peptide solution to reach a final DMSO concentration of maximum 1-3%. We verified that the addition of DMSO in the reaction mixture has no effect on Aβ42 aggregation.
Solutions of monomeric peptides were prepared by dissolving the lyophilized Aβ42 peptide in 6 M GuHCl. Monomeric forms were purified from potential oligomeric species and salt using a Superdex 75 10/300 GL column (GE Healthcare) at a flowrate of 0.5 mL/min, and were eluted in 20 mM sodium phosphate buffer, pH 8 supplemented with 200 μM EDTA and 0.02% NaN3. The centre of the peak was collected, and the peptide concentration was determined from the absorbance of the integrated peak area using ε280=1490 L mol^−1 cm^−1. The obtained monomer was diluted with buffer to the desired concentration and supplemented with 20 μM Thioflavin T (ThT) from a 1 mM stock. All samples were prepared in low binding Eppendorf tubes on ice using careful pipetting to avoid introduction of air bubbles. Each sample was then pipetted into multiple wells of a 96-well half-area, low-binding, clear bottom and PEG coating plate (Corning 3881), 80 μL per well. Aβ42 kinetics have been performed in the absence or the presence of Netoglitazone, Mitoglitazone, Rosiglotazone, Rivoglitazone, Pioglitazone, Ciglitazone, Englitazone, Darglitazone, Troglitazone and B alaglitazone.

[2] = biological target: T2, Aβ42 fibrils (Homo sapiens, UniProt P05067); experiment: Dot-blot assay with fibril-specific OC antibody; details: 2 μM Aβ42; 5-fold excess of compound; eight time points
T2 construct: […]; made in house; host or cells: E. coli BL21 Gold (DE3)
Experimental: Blotting was performed using Aβ42 fibril-specific antibody (OC, Millipore). During the time course of the aggregation of a 2 μM Aβ42 in the absence and in the presence of 5-fold excess of Netoglitazone, 4 μL Aβ42 aliquots were removed from the mixture at different time points for blotting with OC. Aβ42 aliquots were spotted onto a nitrocellulose membrane (0.2 μm, Whatman) and then the membranes were dried and then blocked with Blocking One (Nacalai tesque) before immuno-detection. OC was used according to the manufacturer's instructions. Alexa Fluor® 488-conjugated secondary antibodies (Life technologies) were subsequently added and fluorescence detection was performed using Typhoon Trio Imager (GE Healthcare).

[3] = biological target: T3, Aβ42 oligomers (Homo sapiens, UniProt P05067); experiment: Ca2+ influx assay (lipid vesicle disruption by aggregates); details: 2 μM Aβ42; 5-fold excess added at 0 h; measured at 2 h
T3 construct: […]; made in house; host or cells: E. coli BL21 Gold (DE3)
Experimental: Single vesicles tethered to PLL-PEG coated borosilicate glass coverslides (VWR International, 22×22 mm, product number 63 1-0122) were placed on an oil immersion objective mounted on an inverted Olympus IX-71 microscope. Each coverslide was affixed at Frame-Seal incubation chambers and was incubated with 50 μL of HEPES buffer of pH 6.5. Just before the imaging, the HEPES buffer was replaced with 50 μL Ca^2+ containing buffer solution L-15. 16 (4×4) images of the coverslide were recorded under three different conditions (background, in the presence of Aβ42 and after addition of ionomycin (Cambridge Bioscience Ltd, Cambridge, UK), respectively). The distance between each field of view was set to 100 μm, and was automated (bean-shell script, Micromanager) to avoid any user bias. After each measurement the script allowed the stage (Prior H117, Rockland, Mass., USA) to move the field of view back to the start position such that identical fields of view could be acquired for the three different conditions. Images of the background were acquired in the presence of L15 buffer. For each field of view 50 images were taken with an exposure time of 50 ms. […] The recorded images were analysed using ImageJ to determine the fluorescence intensity of each spot under the three different conditions in the presence of an aggregation mixture incubated with and without Netoglitazone.

[4] = biological target: T3, Aβ42 oligomers; experiment: ELISA with oligomer-specific antibody; details: 5 μM Aβ42; 5-fold excess; at half-time of aggregation of Aβ42 alone
Experimental: 20 μl Aliquots were taken at the t50 (i.e. half-time) from aggregation reactions of 5 μM Aβ42 in the absence and in the presence of 5-fold excess of Netoglitazone. Samples were then immobilised on a 96-well Maxisorp ELISA plate (Nunc, Roskilde, Denmark) with no shaking for 1 h at room temperature. The plate was then washed three times with 20 mM Tris pH 7.4, 100 mM NaCl and incubated in 20 mM Tris pH 7.4, 100 mM NaCl, 5% BSA under constant shaking overnight at 4° C. The day after the plate was washed six times with 20 mM Tris pH 7.4, 100 mM NaCl and then incubated with 30 μl solutions of 5 μM oligomer-specific antibody under constant shaking either for 1 hour or overnight at room temperature. At the end of this incubation, the plate was washed six times with 20 mM Tris pH 7.4, 100 mM NaCl and incubated with 30 μl solutions of Rabbit polyclonal to 6× His Tag® HRP conjugated (Abcam, Cambridge, UK) at a dilution of 1:4000 in 20 mM Tris pH 7.4, 100 mM NaCl, 5% BSA under shaking for 1 hour at room temperature. […] Finally, the amount of bound oligomer-specific antibody was quantified by using 1-Step™ Ultra TMB-ELISA Substrate Solution (ThermoFisher Scientific, Waltham, Mass., United States), according to manufacturer instructions, and measuring the absorbance at 450 nm by means of a CLARIOstar plate reader (BMG Labtech, Aylesbury, UK).

T3 sequence (P05067 671-713): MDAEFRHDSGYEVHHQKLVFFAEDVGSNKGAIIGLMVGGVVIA
T2 sequence (P05067 671-713): as above
T1 sequence (P05067 671-713): as above

## O=C1NC(=O)C(Cc2ccc3cc(OCc4ccccc4F)ccc3c2)S1 (stereo not shown) [Netoglitazone]
[1]
  delay in Aβ42 aggregation: substantial delay
[2]
  delay of Aβ42 fibril formation in dot blot assay compared with ThT-based assay: identical within experimental error
[3]
  protection against vesicle disruption (Ca2+ influx) by Aβ42 species: protected against the neurotoxic species-induced vesicle disruption
[4]
  Aβ42 oligomer concentration (ELISA): significant reduction
